Assay [1] deals with poly dAdT–poly dAdT (poly(dA-dT)2, AT-DNA) (DNA, polymer) AT. The assay is described as follows: UV thermal melting at 260 nm. The following applies: Na+ (sodium cacodylate, I=0.05 M); pH 7.0; ratio r=[compound]/[polynucleotide]=0.1; per base.
Assay [2] has as its system poly A–poly U (poly rA–poly rU, AU-RNA) (RNA, polymer) A/U. The assay is described as follows: UV thermal melting at 260 nm. The following applies: Na+ (sodium cacodylate, I=0.05 M); pH 7.0; ratio r=[compound]/[polynucleotide]=0.1; per base.

As to `Cc1cc(-c2ccc(-c3ccc(-c4cc(C)c(B(c5c(C)cc([N+](C)(C)C)cc5C)c5c(C)cc([N+](C)(C)C)cc5C)c(C)c4)s3)s2)cc(C)c1B(c1c(C)cc([N+](C)(C)C)cc1C)c1c(C)cc([N+](C)(C)C)cc1C`, the ΔTm result was “+10.0 ± 0.5 °C” in assay [1] and “+9.5 ± 0.5 °C” in assay [2].
